Broadly, the Ki is the dissociation constant of the complex between target and ligand, obtained from inhibition or displacement. What is called EC50 is the concentration at which the effect is half-maximal.

The values that follow come from ChEMBL document CHEMBL5215009, “Discovery of Pan-peroxisome Proliferator-Activated Receptor Modulators from an Endolichenic Fungus, Daldinia childiae” (J Nat Prod, 2022).

The test system of test [1] is Mesenchymal stem cells. The experiment in a line: Induction of adipogenesis in differentiated human BMMSC cells assessed as increase in adiponectin level at 30 uM in presence of IDX by ELISA. The class given is functional, cell-based.
The target of test [2] is T1, Peroxisome proliferator-activated receptor alpha (Homo sapiens, UniProt Q07869).
T1 sequence (Q07869 whole entry): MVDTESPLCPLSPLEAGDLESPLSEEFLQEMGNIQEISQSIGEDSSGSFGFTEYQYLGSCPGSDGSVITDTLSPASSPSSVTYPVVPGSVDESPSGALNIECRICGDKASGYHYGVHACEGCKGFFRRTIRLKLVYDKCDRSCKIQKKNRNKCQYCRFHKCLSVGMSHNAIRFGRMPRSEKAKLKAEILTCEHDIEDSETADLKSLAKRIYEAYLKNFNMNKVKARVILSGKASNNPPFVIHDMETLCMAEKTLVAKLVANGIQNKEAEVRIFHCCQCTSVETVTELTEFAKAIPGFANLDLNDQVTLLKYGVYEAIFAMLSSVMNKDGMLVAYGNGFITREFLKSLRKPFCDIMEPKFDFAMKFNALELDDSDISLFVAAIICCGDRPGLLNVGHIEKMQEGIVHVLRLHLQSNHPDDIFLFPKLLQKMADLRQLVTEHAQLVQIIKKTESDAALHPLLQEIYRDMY
The experiment in a line: Binding affinity to PPARalpha (unknown origin) assessed as inhibition constant by Cheng-Prusoff equation analysis.

For test [3], the target named is T2, Peroxisome proliferator-activated receptor alpha (Homo sapiens) (UniProt Q07869).
T2 sequence (whole entry): T1 sequence (Q07869 whole entry)
The experiment in a line: Displacement of fluormone pan-PPARgreen from PPARalpha (unknown origin) at 30 uM by TR-FRET based competitive binding assay relative to control. (In TR-FRET formats the signal depends on donor and acceptor labels being close together.)

Test [4] has as its system Mesenchymal stem cells. The experiment in a line: Induction of adipogenesis in differentiated human BMMSC cells assessed as fold increase in adiponectin level in presence of IDX by ELISA. Format: functional, cell-based. (ELISA stands for enzyme-linked immunosorbent assay.)
Test [5] concerns the target T3, Peroxisome proliferator-activated receptor delta (Homo sapiens, UniProt Q03181).
T3 sequence (Q03181 whole entry): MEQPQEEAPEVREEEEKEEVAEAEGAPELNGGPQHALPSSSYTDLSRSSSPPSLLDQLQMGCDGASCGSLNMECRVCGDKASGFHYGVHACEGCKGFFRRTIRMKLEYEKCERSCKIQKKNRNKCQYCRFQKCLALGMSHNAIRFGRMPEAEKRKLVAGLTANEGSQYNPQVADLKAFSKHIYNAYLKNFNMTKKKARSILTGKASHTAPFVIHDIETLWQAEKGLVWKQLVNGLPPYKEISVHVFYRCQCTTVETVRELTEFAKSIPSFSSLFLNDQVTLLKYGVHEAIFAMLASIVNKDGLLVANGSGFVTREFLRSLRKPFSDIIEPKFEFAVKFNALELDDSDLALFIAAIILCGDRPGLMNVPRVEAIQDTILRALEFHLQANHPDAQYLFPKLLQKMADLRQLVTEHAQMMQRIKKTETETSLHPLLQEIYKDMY
Put plainly: Partial agonist activity at PPARdelta (unknown origin) assessed as increase in fluorescein labeled PRIP/RAP250 coactivator peptide requirement by Lanthascreen TR-FRET assay.

Test [6] has as its target T4, Peroxisome proliferator-activated receptor gamma (Homo sapiens) (UniProt P37231).
T4 sequence (whole entry): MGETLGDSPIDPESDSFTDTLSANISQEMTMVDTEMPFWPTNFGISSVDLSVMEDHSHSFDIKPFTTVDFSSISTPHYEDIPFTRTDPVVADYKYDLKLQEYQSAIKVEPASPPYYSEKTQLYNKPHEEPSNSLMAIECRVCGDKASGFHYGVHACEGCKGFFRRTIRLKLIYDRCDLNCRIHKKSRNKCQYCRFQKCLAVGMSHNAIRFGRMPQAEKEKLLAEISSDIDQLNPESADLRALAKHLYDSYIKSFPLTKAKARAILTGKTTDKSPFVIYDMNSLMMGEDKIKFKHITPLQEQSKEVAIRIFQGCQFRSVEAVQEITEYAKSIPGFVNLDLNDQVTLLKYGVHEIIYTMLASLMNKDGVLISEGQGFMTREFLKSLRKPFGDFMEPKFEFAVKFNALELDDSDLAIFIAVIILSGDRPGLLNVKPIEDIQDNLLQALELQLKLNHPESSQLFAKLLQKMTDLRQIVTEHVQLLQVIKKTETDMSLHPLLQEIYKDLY
The experiment in a line: Partial agonist activity at PPARgamma (unknown origin) assessed as increase in fluorescein labeled SRC-2 coactivator peptide requirement by Lanthascreen TR-FRET assay. To be noted: filed as partial agonist.

For test [7], the target named is T4, Peroxisome proliferator-activated receptor gamma (Homo sapiens). Put plainly: Partial agonist activity at PPARgamma (unknown origin) assessed as increase in fluorescein labeled SRC-1 coactivator peptide requirement by Lanthascreen TR-FRET assay. To be noted: filed as partial agonist.
The target in test [8] is T5, Peroxisome proliferator-activated receptor delta (Homo sapiens) (UniProt Q03181).
T5 sequence (whole entry): T3 sequence (Q03181 whole entry)
Put plainly: Displacement of fluormone pan-PPARgreen from PPARdelta (unknown origin) at 30 uM by TR-FRET based competitive binding assay relative to control. To be noted: filed as partial agonist.

For test [9], the target named is T6, Peroxisome proliferator-activated receptor gamma (Homo sapiens, UniProt P37231).
T6 sequence (P37231 whole entry): T4 sequence (whole entry)
Put plainly: Partial agonist activity at PPARgamma (unknown origin) assessed as increase in fluorescein labeled PRIP/RAP250 coactivator peptide requirement by Lanthascreen TR-FRET assay.

Test [10] relates to Mesenchymal stem cells. The experiment in a line: Induction of adipogenesis in differentiated human BMMSC cells assessed as increase in number and size of lipid droplets at 30 uM in presence of IDX by Oil red O staining based inverted microscope analysis. Format: functional, cell-based.
Test [11] has as its target T7, Retinoic acid receptor RXR-alpha (Homo sapiens) (UniProt P19793).
T7 sequence (whole entry): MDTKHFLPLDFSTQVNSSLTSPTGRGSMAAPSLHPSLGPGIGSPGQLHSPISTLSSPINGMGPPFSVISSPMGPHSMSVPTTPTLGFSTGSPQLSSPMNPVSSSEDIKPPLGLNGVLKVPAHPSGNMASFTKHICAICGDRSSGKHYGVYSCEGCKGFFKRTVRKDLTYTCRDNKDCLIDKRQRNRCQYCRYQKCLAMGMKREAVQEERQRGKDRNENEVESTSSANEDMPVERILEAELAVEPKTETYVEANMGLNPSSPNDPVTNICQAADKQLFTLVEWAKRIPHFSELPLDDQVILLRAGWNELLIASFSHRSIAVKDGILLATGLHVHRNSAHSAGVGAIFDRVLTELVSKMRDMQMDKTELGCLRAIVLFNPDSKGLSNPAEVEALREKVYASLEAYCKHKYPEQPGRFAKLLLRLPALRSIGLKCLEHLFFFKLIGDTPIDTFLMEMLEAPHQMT
Put plainly: Agonist activity at RXRalpha-LBD (unknown origin) assessed as transactivation by measuring increase in fluorescein-labelled coactivator PGC-1alpha peptide recruitment at 60 uM by Lanthascreen TR-FRET assay relative to control. To be noted: filed as agonist.

Test [12] has as its target T4, Peroxisome proliferator-activated receptor gamma (Homo sapiens). The experiment in a line: Partial agonist activity at PPARgamma in human BMMSC cells assessed as inhibition of pioglitazone-induced adiponectin synthesis measured after 5 days by ELISA. The class given is cell-based. To be noted: filed as partial agonist, dose 10-30 µM, time 5.0 day, DDE = dose-dependent effect.

Test [13] shares this target. The experiment in a line: Displacement of fluormone pan-PPARgreen from PPARgamma (unknown origin) at 30 uM by TR-FRET based competitive binding assay relative to control. To be noted: filed as partial agonist.
For test [14], the target named is T3, Peroxisome proliferator-activated receptor delta. Put plainly: Binding affinity to PPARdelta (unknown origin) assessed as inhibition constant by Cheng-Prusoff equation analysis.
Test [15] has as its system Mesenchymal stem cells. The experiment in a line: Induction of adipogenesis in differentiated human BMMSC cells assessed as fold increase in adiponectin level at 30 uM in presence of IDX by ELISA relative to control. Format: functional.
Test [16] deals with T8, Retinoic acid receptor RXR-alpha (Homo sapiens, UniProt P19793).
T8 sequence (P19793 whole entry): T7 sequence (whole entry)
The experiment in a line: Agonist activity at RXRalpha-LBD (unknown origin) assessed as transactivation by measuring increase in fluorescein-labelled coactivator PGC-1alpha peptide recruitment by Lanthascreen TR-FRET.

Test [17] addresses T1, Peroxisome proliferator-activated receptor alpha. Put plainly: Partial agonist activity at PPARalpha (unknown origin) assessed as increase in PRIP/RAP250 coactivator peptide requirement by Lanthascreen TR-FRET assay.
Test [18] concerns the target T6, Peroxisome proliferator-activated receptor gamma. Put plainly: Binding affinity to PPARgamma (unknown origin) assessed as inhibition constant by Cheng-Prusoff equation analysis.
Test [19] deals with Mesenchymal stem cells. The experiment in a line: Induction of adipogenesis in differentiated human BMMSC cells assessed as fold increase in adiponectin level at 5 uM in presence of IDX by ELISA relative to control. Format: functional.

Calls of active or inactive are those of the source. The rule behind the calls is not given here.

`COc1cccc2ccc(-c3cc(-c4ccc(O)c5c(OC)cccc45)c4cccc(OC)c4c3O)c(O)c12`: in test [1], the result was Active.

Consider `O=C1CCC(O)c2cccc(O)c21` (stereo not given), for which, in test [1], the result was Active.

For the molecule `CC(=O)c1c(O)cccc1O`, the outcome in test [1] was Active.

`COc1cccc2ccc(-c3ccc4cccc(OC)c4c3O)c(O)c12`: the result in test [1] was Active.

In the case of `COc1cccc2ccc(-c3cc(-c4ccc5cccc(OC)c5c4O)c4cccc(OC)c4c3O)c(O)c12`, the Ki in test [2] turned out to be 9.4 µM; in [14], 18.8 µM; in test [18], 19.1 µM. The Activity in test [3] (filed as partial agonist) stood at 56.5%; in test [8], 51.8%; in test [11] it was 53.2%; in [13], 52%. For the same molecule, the concentration giving a half-maximal response (EC50) was found to be 30.8 µM in test [4]; 53.9 µM in [5]; 50.8 µM in [9]; 52.9 µM in [16]; 58.2 µM in test [17]. Also, the outcome in test [6], in [7] and in [10] was Active. The inhibition entry in [12] was “Dde”. Further, in test [15], the “fold change (FC)” value worked out at 4.1.

As to `COc1cccc2c(-c3ccc(O)c4c(OC)cccc34)ccc(O)c12`, the outcome in [1] was Active.

On to `COc1cccc2ccc(-c3ccc(O)c4c(OC)cccc34)c(O)c12`, for which the Activity is 37.6% in test [3], 42.1% in test [8] and 61.2% in test [13]. Also, the EC50 in test [4] is 15.2 µM. Besides, in [10], the outcome was Active. Also, the inhibition result in [12] was “Dde”. In addition, in test [15], the “fold change (FC)” value came out at 6. Further, in test [18], the Ki was determined as 6.6 µM.

As for `COc1cccc2ccc(-c3cc(-c4ccc(O)c5c(OC)cccc45)c(O)c4c(OC)cccc34)c(O)c12`, the outcome in [1] was Active.

Turning to `COc1ccc(Cl)cc1C(=O)NCCc1ccc(S(=O)(=O)NC(=O)NC2CCCCC2)cc1` [GLYBURIDE], the “fold change (FC)” value in test [19] is reported as 4.93.

On to `COc1cccc2c(-c3cc(-c4ccc(O)c5c(OC)cccc45)c4cccc(OC)c4c3O)ccc(O)c12`, for which, in [1], the result was Active.

On to `Cc1cc(=O)c2c(O)cccc2o1`, for which, in [1], the outcome was Active.

As for `CCc1ccc(CCOc2ccc(CC3SC(=O)NC3=O)cc2)nc1` (stereo not given) [PIOGLITAZONE], the EC50 in test [4] was found to be 0.79 µM.
